For assay [1], the system named is Bcl-xL. Kind of assay: In cellulo BRET between Luciferase-fused TCTP and YFP-fused Bcl-xL. Type of assay: cell-based. The following applies: MCF-7 cells; 16 h treatment. From the text:
See Supplementary Information for full details.
Twenty-four hours later, cells
Protein expression and purification
A general note: BRET reads energy transfer from a luciferase to a nearby fluorophore.

Assay [2] has as its target T1, Bcl-xL (Homo sapiens, UniProt Q07817, DEL27-82).
T1 construct: one containing the fragment 1-26, and the other the fragment 81-209; 6His (N, cleaved yes); made in house; host or cells: Escherichia coli BL21 (DE3) pRARE2
Kind of assay: Heterocomplex formation with Bcl-xL (native MS, SEC-MALS, gel filtration). The assay is classed as binding. The settings on record: native MS: Bcl-xL(Δ27-81ΔCT), equimolar 100 μM, 30 °C, checked at 5 μM (for TCTP-R21A). As to the method: When not specified, proteins tested for binding experiments were mixed at 100 μM, dialyzed against 10 mM CHES pH 9, 50 mM NaCl, 1 mM DTT or TCEP, depending on the analysis, and heated overnight at 30 °C.
For binding experiments, 100 to 200PL of protein mixture were loaded on a size exclusion chromatography (S200, GE Healthcare) column, while elution profiles were measured by UV absorption at 280 nm.
SEC-MALS experiments were performed on a multi-angle light scattering detector (miniDAWN TREOS, Wyatt Technologies) coupled in-line with SEC and an interferometric refractometer (Optilab T-rEX, Wyatt Technologies). See Supplementary Information for full details.
Prior to any mass spectrometry experiment, protein buffer was exchanged twice against a 50 mM ammonium acetate (NH4Ac) solution at pH 9.0 using microcentrifuge gel filtration columns (Zeba 0.5 ml, Thermo Scientific, Rockford, IL). Protein concentration was determined spectrophotometrically. […]
Supplementary Table 1. Measured molecular weights in denaturing conditions Sample Theoretical molecular Measured molecular Associated mass (Da) mass (Da) species […]
Gel filtration. For binding experiments, 100 to 200PL of protein mixture were loaded on a size exclusion chromatography (S200, GE Healthcare) column, while elution profiles were measured by UV absorption at 280nm. […]

For assay [3], the target named is T1, Bcl-xL. Kind of assay: Isothermal Titration Calorimetry, peptides and Bcl-xL. The following applies: ITC, 30 °C, 50 mM ammonium bicarbonate pH 9, TCTP-BH3-R21A 1.26 mM (Fig. 1B). Type of assay: binding. As to the method:
In red, the conserved hydrophobic residues of the BH3 domain (named h1 (P1), h2 (P2), h3 (P3) and h4 (P4)). In green, the GD signature of BH3 domains. In blue, the conserved charged residues. […] Each experiment was carried out at 30 °C in 50 mM ammonium bicarbonate pH 9.
Titrations were done by isothermal titration calorimetry (ITC) assays using an ITC200 calorimeter from GE-Microcal. See Supplementary Information for full details. […]
hybrid-FLAG peptides, rabbit anti-FLAG (Sigma) and anti-rabbit-FITC (Abcam) were used.
Isothermal Titration Calorimetry experiments
Titrations were done by isothermal titration calorimetry (ITC) assays using an ITC200 calorimeter from GE-Microcal. Bcl-xL was used at 0.065 mM in 50mM bicarbonate ammonium […]
pH 9. […] Titrations were carried out at 30°C. Data were analyzed using Microcal Origin software provided by the ITC manufacturer (GE-Microcal).
High-throughput crystallization screening was performed using a Mosquito liquid transfer robot (TTP Labtech) and the sitting-drop vapor diffusion method. Crystals were obtained at 20°C by mixing 0.2μL of reservoir solution (100mM Pipes pH 7, 1.5M Tris-sodium citrate) with 0.2μL of […]
ammonium bicarbonate pH 9.3 and by equilibrating the mixture against 40μl of reservoir

The subject of assay [4] is Bax mediated cytochrome c release, Bcl-xL. Kind of assay: Cytochrome c release from purified mitochondria by tBid and Bax in the presence of Bcl-xL. The assay is classed as biochemical. The settings on record: mouse liver mitochondria; 5 nM tBid, 50 nM Bax, 300 nM Bcl-xL; 15 min, 30 °C; Western blot. As to the method:
(A–E) in vitro reconstitution assay on liposome permeabilization. […] The treated Bcl-xL was then added to reactions containing ANTS-DPX liposomes, 100 nM Bax and 20 nM of either cBid (A,B) or cBidmt1(C,D) at pH 7. Liposome permeabilization was quantified by fluorescence after 5h incubation at 37 °C where 100% release was defined as the fluorescence change due to lipid solubilization with 1% Triton X-100. […] Error bars, std. dev. n = 3. To compare between the TCTP treated groups and the Control group statistically, two-way ANOVA test was performed for (A–D) and one-way ANOVA test was performed for (E). […] Colored asterisks above each data point indicate the statistical significance (*p < 0.05; **p < 0.01, no asterisks if p ≥ 0.05). A complete statistical analysis is provided in Supplementary Table 2–4. […] Cyto c extra-mito: in the supernatant, analysed by Western blot. […]
to highlight the pre-incubation), pH 9, 30 C° before being added to the mitochondria at their final concentrations. […] Cytochrome c was detected in the mitochondrial fraction (Cyto c intra-mito) or in the supernatant (Cyto c extra-mito) by Western blot analysis. […]
Cytochrome c release assay. […] Mitochondrial pellets and the corresponding supernatant fractions were subjected to SDS-polyacrylamide gel electrophoresis and analyzed by Western blotting for cytochrome c.
(In western blotting, separated proteins are transferred to a membrane and probed.)

For assay [5], the system named is thymocytes from TCTP^+/− mice. Kind of assay: Complementation (viability) of γ-irradiated TCTP+/− thymocytes. Type of assay: cell-based, mouse. The settings on record: γ-irradiation 2.5 Gy, overnight culture, 0 to 1000 nM. The source says:
Figure 4 Molecular/functional analysis of the h1 (P1) subregion of BH3-TCTP. […]
Peptides used for in vitro assays:
WT-TCTP (11-31): […]
R21A-TCTP (11-31): […]
Hybrid Bax/TCTP: […]
Peptides used for in vivo assays:
WT-TCTP (1-31) : […]
Hybrid Bax-TCTP: […]
TCTP-FLAG peptides used for in vivo assays:
WT-TCTP (1-31)-FLAG : […] DYKDDDDK-OH
TCTP-Bax-TCTP-FLAG: […]-OH […]
subdomain in the BH3 motif is underlined. Peptides were purchased from Smartox […]
Complementation and transduction experiments
In order to complement the haploinsufficient TCTP+/- mice with exogenous TCTP, we took advantage of the fact that the first N-terminal fragment of TCTP functions as a Protein Transduction Domain (PTD), enabling TCTP to penetrate into the cell by a mechanism hitherto […]
not well understood23,27-29. […]
of γ irradiation) and cultured, at a concentration of 10^7 cells/ml, overnight in the presence of […]
20) at concentrations ranging from 0-1000nM. For the transduction assays using WT-TCTP- […]
concentrations were 10 microM, 50 microM and 100 microM.
γ-irradiated thymocytes were fixed by adding 500ul of PFA 4% and incubated for 20 min at room temperature. The cells were washed twice with PBS and permeabilized for 10 min with 0.2% triton X-100 in PBS at room temp. The cells were washed twice with PBS. Proteins were blocked in Blocking buffer (1% BSA 0.5% Tween in PBS) 1h at room temperature. The primary antibody was added with blocking buffer and placed in a rotating wheel overnight in a cold room.
Cells were then washed 3 times with PBS and incubated with secondary antibody with blocking buffer 1h at room temperature. The cells were washed 3 times with PBS and suspended in 200 µL PBS and used for Flow Cytometry or further used for immunohistochemistry: 5 µl of each sample were mixed with 5 µl of ProLong® Gold antifade reagent (Life Technologies) and visualized, using the IX73 inverted fluorescence microscope and the cellSens™ Dimension […]
FACS analysis (BD Accuri™ C6 Cytometer (BD Biosciences) of incorporation of exogenous

T1 sequence (Q07817 with tags, fused parts or gaps DEL27-82): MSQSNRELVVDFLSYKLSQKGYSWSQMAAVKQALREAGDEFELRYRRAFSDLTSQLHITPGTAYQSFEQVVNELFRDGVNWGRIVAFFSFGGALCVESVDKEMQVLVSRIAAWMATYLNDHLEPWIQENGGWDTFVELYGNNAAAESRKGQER

With `CN(C)CC[C@H](CSc1ccccc1)Nc1ccc(S(=O)(=O)NC(=O)c2ccc(N3CCN(Cc4ccccc4-c4ccc(Cl)cc4)CC3)cc2)cc1[N+](=O)[O-]` [ABT-737, reference compound], in the assay on Bcl-xL [1], the “inhibition of BRET signals between TCTP and Bcl-xL” value is given as “significantly inhibited”. In addition, the “complex formation with Bcl-xL” value at Bcl-xL [2] was “abrogated formation of the TCTP/Bcl-xL complexes”. For the molecule “DEMFSDIYKIAEIADGLCLEV [TCTP11–31-R21A, R21A mutant of TCTP11–31 peptide]”, the “binding to Bcl-xL” value on Bcl-xL [3] is reported as “does not bind to Bcl-xL”. As to “MIIYRDLISHDEMFSDIYKI [TCTP1–20, truncated TCTP peptide]”, the “potentiation of Bcl-xL (cytochrome c release)” value in assay [4] is “do not potentiate Bcl-xL”. As for “MIIYRDLISHDEMFSDIYKIREIADGLCLEV [TCTP1–31]”, the “rescue of TCTP+/− haploinsufficient phenotype / anti-apoptotic function” value in assay [5] is “rescue completely the TCTP^+/− haploinsufficient phenotype”. Turning to “MIIYRDLISHDEMKKLSECIREIADGLCLEV [hybrid mutant]”, the “rescue of TCTP+/− haploinsufficient phenotype / anti-apoptotic function” value is “not able anymore to rescue the haploinsufficient phenotype” in assay [5] and “completely abrogated its anti-apoptotic function” in assay [5] (listed as hybrid Bax(h1)-TCTP).
